Results taken from publication PMC6054517, “Design and synthesis of novel oridonin analogues as potent anticancer agents” (Journal of Enzyme Inhibition and Medicinal Chemistry, 2018).

How the values were obtained:
Assay type in all cases: cell-based, human
[1] = system: AGS; experiment: MTT antiproliferative assay, AGS cells; conditions: Homo sapiens, AGS, 48 h, MTT, means ± SD, n = 3
Excerpt: (§1) Human gastric cancer (AGS), human differentiation of advanced gastric cancer (MGC803), human colorectal cancer (HCT116), human lung cancer (A549), human hepatocellular carcinoma (Bel7402) and human cervical cancer (HeLa) cell lines were obtained from the State Key Laboratory of Natural Resources and Functional Molecules of the Changbai Mountain (Yanbian University) and maintained in Dulbecco’s modified Eagle’s medium and RPMI Media 1640 (RPMI1640), supplemented with 10% foetal bovine serum 100 IU/ml penicillin, […] and 2 mmol/l L-glutamine (Sigma) at 37 °7 in a humidified atmosphere containing 5% CO2.
(§2) All six human cancer cell lines and normal L02 cells were seeded in 96-well plates at the appropriate densities to ensure exponential growth throughout the experimental period (9 × 10^3 cells per well) and then allowed to adhere for 24 h. The cells were then treated for 48 h with four serial dilutions (100, 50, 10, and 1 µM) of each compound. 5-Fluorouracil (5-FU) was used as the positive control. After incubation for 48 h, 10 µl MTT solution was added to each well to give a final concentration of 2 mg ml^−1. The plates were then incubated for further 4 h. After incubation, the MTT solution was removed and 150 µl DMSO was added to each well to solubilise the formed product. To ensure complete solubilisation, the plates were shaken vigorously for 10 min at room temperature. The optometric density (OD) was read on a microplate reader (ELx800, BioTek, Highland Park, Winooski, VT) at a wavelength of 492 nm and the data were subsequently analysed. The percentage of cell growth inhibition was calculated from the following equation: inhibitory rate (%) = [1–(ODtreated–ODblank)/(ODcontrol–ODblank)] × 100.
(§3) The MTT assay was performed using a standard protocol.

[2] = system: MGC803; experiment: MTT antiproliferative assay, MGC803 cells; conditions: Homo sapiens, MGC-803; MTT, 48 h, means ± SD, n = 3
Excerpt: as §1, §2, §3

[3] = system: Bel7402; experiment: MTT antiproliferative assay, Bel7402 cells; conditions: Homo sapiens, Bel-7402; MTT, 48 h, means ± SD, n = 3
Excerpt: as §1, §2, §3

[4] = system: HCT116; experiment: MTT antiproliferative assay, HCT116 cells; conditions: MTT, 48 h, means ± SD, n = 3
Excerpt: as §1, §2, §3

[5] = system: A549; experiment: MTT antiproliferative assay, A549 cells; conditions: Homo sapiens, A549; MTT, 48 h, means ± SD, n = 3
Excerpt: as §1, §2, §3

[6] = system: Hela; experiment: MTT antiproliferative assay, HeLa cells; conditions: Homo sapiens, HeLa; MTT, 48 h, means ± SD, n = 3
Excerpt: as §1, §2, §3

| IC50 [1] | IC50 [2] | IC50 [3] | IC50 ([4]; Homo sapiens, HCT-116, 48 h) | IC50 [5] | IC50 [6] | IC50 [4] | Structure (SMILES) |
| --- | --- | --- | --- | --- | --- | --- | --- |
| > 100 µM | 9.13 ± 0.82 µM | 4.97 ± 0.56 µM | 47.1 ± 4.32 µM | > 100 µM | > 100 µM |  | CC1(C)CCC(O)C23COC(O)(C(O)C12)C12C(=O)C(=Cc4ccccc4)C(CCC31)C2O [Compound 2a, (1S,4aR,5S,6S,6aR,9S,11aS,14R,E)-8-benzylidene-1,5,6,14-tetrahydroxy-4,4-dimethyldecahydro-1H-6,11b-(epoxymethano)-6a,9-methanocyclohepta[a]naphthale-n-7(8H)-one] |
| 14.3 ± 2.43 µM | > 100 µM | 12.6 ± 1.05 µM | 10.2 ± 1.12 µM | 59.6 ± 4.75 µM | > 100 µM |  | CC1(C)CCC(O)C23COC(O)(C(O)C12)C12C(=O)C(=Cc4ccc(F)cc4)C(CCC31)C2O [Compound 2c, (1S,4aR,5S,6S,6aR,9S,11aS,14R,E)-8-(4-fluorobenzylidene)-1,5,6,14-tetrahydroxy-4,4-dimethyldecahydro-1H-6,11b-(epoxymethano)-6a,9-methanocyclohepta[a]n-aphthalen-7(8H)-one] |
| 15.3 ± 1.78 µM | 7.27 ± 0.74 µM | 9.66 ± 1.15 µM | 14 ± 1.94 µM | 23.1 ± 3.63 µM | > 100 µM |  | CC1(C)CC[C@H](O)C23CO[C@](O)([C@@H](O)[C@H]12)[C@]12C(=O)/C(=C/c4ccc(Cl)cc4)[C@H](CC[C@@H]31)[C@H]2O [Compound 2e, (1S,4aR,5S,6S,6aR,9S,11aS,14R,E)-8-(4-chlorobenzylidene)-1,5,6,14-tetrahydroxy-4,4-dimethyldecahydro-1H-6,11b-(epoxymethano)-6a,9-methanocyclohepta[a]-naphthalen-7(8H)-one] |
| 10.8 ± 2.39 µM | 17.7 ± 1.13 µM | 24.2 ± 2.27 µM | 14.2 ± 1.31 µM | 66.9 ± 5.29 µM | 22.3 ± 1.92 µM |  | Cc1cccc(/C=C2/C(=O)[C@]34[C@H](O)[C@H]2CC[C@H]3C23CO[C@]4(O)[C@@H](O)[C@@H]2C(C)(C)CC[C@@H]3O)c1 [Compound 2g, (1S,4aR,5S,6S,6aR,9S,11aS,14R,E)-1,5,6,14-tetrahydroxy-4,4-dimethyl-8-(3-methylbenzylidene)decahydro-1H-6,11b-(epoxymethano)-6a,9-methanocyclohepta[a]naphthalen-7(8H)-one] |
| 5.26 ± 1.09 µM | 27.2 ± 2.38 µM | 11.3 ± 0.98 µM | 10.1 ± 1.39 µM | 18 ± 1.49 µM | 28.7 ± 2.13 µM |  | Cc1ccc(/C=C2/C(=O)[C@]34[C@H](O)[C@H]2CC[C@H]3C23CO[C@]4(O)[C@@H](O)[C@@H]2C(C)(C)CC[C@@H]3O)cc1 [Compound 2h, (1S,4aR,5S,6S,6aR,9S,11aS,14R,E)-1,5,6,14-tetrahydroxy-4,4-dimethyl-8-(4-methylbenzylidene)decahydro-1H-6,11b-(epoxymethano)-6a,9-methanocyclohepta[a]naphthalen-7(8H)-one] |
| 2.91 ± 0.42 µM | 2.79 ± 0.38 µM | 4.52 ± 0.46 µM | 2.99 ± 0.32 µM | 16.8 ± 2.51 µM | 68.8 ± 5.32 µM |  | COc1ccc(/C=C2/C(=O)[C@]34[C@H](O)[C@H]2CC[C@H]3C23CO[C@]4(O)[C@@H](O)[C@@H]2C(C)(C)CC[C@@H]3O)cc1 [Compound 2k, (1S,4aR,5S,6S,6aR,9S,11aS,14R,E)-1,5,6,14-tetrahydroxy-8-(4-methoxybenzylidene)-4,4-dimethyldecahydro-1H-6,11b-(epoxymethano)-6a,9-methanocyclohepta-[a]naphthalen-7(8H)-one] |
| 10 ± 1.88 µM | 10.9 ± 1.39 µM | 6.54 ± 0.94 µM | 3.09 ± 0.41 µM | 15.3 ± 1.31 µM | 8.21 ± 1.2 µM |  | CCCOc1ccc(/C=C2/C(=O)[C@]34[C@H](O)[C@H]2CC[C@H]3C23CO[C@]4(O)[C@@H](O)[C@@H]2C(C)(C)CC[C@@H]3O)cc1 [Compound 2o, (1S,4aR,5S,6S,6aR,9S,11aS,14R,E)-1,5,6,14-tetrahydroxy-4,4-dimethyl-8-(4-propoxybenzylidene)decahydro-1H-6,11b-(epoxymethano)-6a,9-methanocyclohepta-[a]naphthalen-7(8H)-one] |

The remaining lines, values behind:

| Structure (SMILES) | IC50 [1] | IC50 [2] | IC50 [3] | IC50 ([4]; Homo sapiens, HCT-116, 48 h) | IC50 [5] | IC50 [6] | IC50 [4] |
| --- | --- | --- | --- | --- | --- | --- | --- |
| CC1(C)CCC(O)C23COC(O)(C(O)C12)C12C(=O)C(=Cc4cccc(F)c4)C(CCC31)C2O [Compound 2b, (1S,4aR,5S,6S,6aR,9S,11aS,14R,E)-8-(3-fluorobenzylidene)-1,5,6,14-tetrahydroxy-4,4-dimethyldecahydro-1H-6,11b-(epoxymethano)-6a,9-methanocyclohepta[a]n-aphthalen-7(8H)-one] | 13.9 ± 1.5 µM | 23.6 ± 1.48 µM | > 100 µM | 36.6 ± 2.43 µM | 47.4 ± 3.49 µM | > 100 µM |  |
| CC1(C)CCC(O)C23COC(O)(C(O)C12)C12C(=O)C(=Cc4cccc(Cl)c4)C(CCC31)C2O [Compound 2d, (1S,4aR,5S,6S,6aR,9S,11aS,14R,E)-8-(3-chlorobenzylidene)-1,5,6,14-tetrahydrox-y-4,4-dimethyldecahydro-1H-6,11b-(epoxymethano)-6a,9-methanocyclohepta[a]-naphthalen-7(8H)-one] | 14.1 ± 1.65 µM | 2.13 ± 0.13 µM | 16.9 ± 1.3 µM | 19.8 ± 3.19 µM | 12.7 ± 1.56 µM | 15.2 ± 1.47 µM |  |
| Cc1ccccc1/C=C1/C(=O)[C@]23[C@H](O)[C@H]1CC[C@H]2C12CO[C@]3(O)[C@@H](O)[C@@H]1C(C)(C)CC[C@@H]2O [Compound 2f, (1S,4aR,5S,6S,6aR,9S,11aS,14R,E)-1,5,6,14-tetrahydroxy-4,4-dimethyl-8-(2-methylbenzylidene)decahydro-1H-6,11b-(epoxymethano)-6a,9-methanocyclohepta[a]-naphthalen-7(8H)-one] | > 100 µM | 22.8 ± 1.25 µM | > 100 µM | 59 ± 3.37 µM | > 100 µM | > 100 µM |  |
| COc1ccccc1/C=C1/C(=O)[C@]23[C@H](O)[C@H]1CC[C@H]2C12CO[C@]3(O)[C@@H](O)[C@@H]1C(C)(C)CC[C@@H]2O [Compound 2j, (1S,4aR,5S,6S,6aR,9S,11aS,14R,E)-1,5,6,14-tetrahydroxy-8-(2-methoxybenzylidene)-4,4-dimethyldecahydro-1H-6,11b-(epoxymethano)-6a,9-methanocyclohepta-[a]naphthalen-7(8H)-one] | 2.87 ± 0.58 µM | 10.4 ± 1.29 µM | 3.56 ± 0.52 µM | 5.08 µM | 7.89 ± 0.99 µM | 24.7 ± 2.08 µM | 5.48 ± 0.64 µM |
| COc1ccc(/C=C2/C(=O)[C@]34[C@H](O)[C@H]2CC[C@H]3C23CO[C@]4(O)[C@@H](O)[C@@H]2C(C)(C)CC[C@@H]3O)cc1OC [Compound 2m, (1S,4aR,5S,6S,6aR,9S,11aS,14R,E)-8-(3,4-dimethoxybenzylidene)-1,5,6,14-tetrahydroxy-4,4-dimethyldecahydro-1H-6,11b-(epoxymethano)-6a,9-methanocyclohepta[a]naphthalen-7(8H)-one] | 17.6 ± 2.32 µM | 17.7 ± 1.67 µM | 3.15 ± 0.64 µM | 11.1 ± 1.83 µM | 13.6 ± 1.89 µM | 30.7 ± 2.9 µM |  |
| COc1cc(/C=C2/C(=O)[C@]34[C@H](O)[C@H]2CC[C@H]3C23CO[C@]4(O)[C@@H](O)[C@@H]2C(C)(C)CC[C@@H]3O)cc(OC)c1OC [Compound 2n, (1S,4aR,5S,6S,6aR,9S,11aS,14R,E)-1,5,6,14-tetrahydroxy-4,4-dimethyl-8-(3,4,5-trimethoxybenzylidene)decahydro-1H-6,11b-(epoxymethano)-6a,9-methanocyclo-hepta[a]naphthalen-7(8H)-one] | 17.3 ± 2.41 µM | 28 ± 1.73 µM | 14.6 ± 1.21 µM | 18.6 ± 1.78 µM | 15.8 ± 1.47 µM | 8.89 ± 0.94 µM |  |
| CC(C)=CCOc1cccc(/C=C2/C(=O)[C@]34[C@H](O)[C@H]2CC[C@H]3C23CO[C@]4(O)[C@@H](O)[C@@H]2C(C)(C)CC[C@@H]3O)c1 [Compound 2q, (1S,4aR,5S,6S,6aR,9S,11aS,14R,E)-1,5,6,14-tetrahydroxy-4,4-dimethyl-8-(3-((3-methylbut-2-en1yl)oxy)benzylidene)decahydro-1H-6,11b-(epoxymethano)-6a,9-methanocyclohepta[a]naphthalen-7(8H)-one] | 3.1 ± 0.41 µM | 9.1 ± 1.72 µM | 8.62 ± 1.12 µM | 7.63 ± 0.81 µM | 4.66 ± 0.3 µM | 5.43 ± 0.85 µM |  |
